Values after ≈ are worked out from the molar mass of the structure shown. Where two headings read alike, the source gives them in different places.
Legend:
Assay type in all cases: cell-based
[1] = system: Staphylococcus aureus X1.1; assay: MIC, standard agar-dilution assay, Staphylococcus aureus X1.1
[2] = system: Staphylococcus aureus V41; assay: MIC, standard agar-dilution assay, Staphylococcus aureus V41
[3] = system: Staphylococcus aureus X400; assay: MIC, standard agar-dilution assay, Staphylococcus aureus X400
[4] = system: Staphylococcus aureus S13E; assay: MIC, standard agar-dilution assay, Staphylococcus aureus S13E
[5] = system: Staphylococcus epidermidis EPI1; assay: MIC, standard agar-dilution assay, Staphylococcus epidermidis EPI1
[6] = system: Staphylococcus epidermidis EPI2; assay: MIC, standard agar-dilution assay, Staphylococcus epidermidis EPI2
[7] = system: Streptococcus pyogenes C203; assay: MIC, standard agar-dilution assay, Streptococcus pyogenes C203
[8] = system: Streptococcus pneumoniae Park I; assay: microbe, parasite or virus in culture
[9] = system: Streptococcus Group D X66; assay: MIC, standard agar-dilution assay, Streptococcus Group D X66
Streptococcus Group 9960 = assay: MIC, standard agar-dilution assay, Streptococcus Group 9960; conditions: Streptococcus Group 9960, agar dilution
[10] = system: Haemophilus influenzae Holt; assay: MIC, standard agar-dilution assay, Haemophilus influenzae Holt; conditions: Haemophilus influenzae Holt, ampicillin-sensitive strain
[11] = system: Haemophilus influenzae R252; assay: MIC, standard agar-dilution assay, Haemophilus influenzae R252; conditions: Haemophilus influenzae R252, ampicillin-resistant strain
Staphylococcus aureus = assay: MIC, broth-dilution microtiter test, Staphylococcus aureus
Source text: (§1) The MIC's in Table X were obtained using conventional broth-dilution microtiter tests.

Streptococcus bovis 80 = assay: MIC, broth-dilution microtiter test, Streptococcus bovis 80; conditions: Streptococcus bovis 80, broth-dilution microtiter
Source text: as §1

[12] = system: Pasteurella multocida 17E; assay: MIC, broth-dilution microtiter test, Pasteurella multocida 17E; conditions: Pasteurella multocida 17E, bovine isolate, broth-dilution microtiter
Source text: as §1

[13] = system: Pasteurella multocida 60A; assay: MIC, broth-dilution microtiter test, Pasteurella multocida 60A; conditions: Pasteurella multocida 60A, avian isolate, broth-dilution microtiter
Source text: as §1

[14] = system: Pasteurella hemolytica 22C; assay: MIC, broth-dilution microtiter test, Pasteurella hemolytica 22C; conditions: Pasteurella hemolytica 22C, broth-dilution microtiter
Source text: as §1

Mycoplasma gallisepticum = assay: MIC, broth-dilution microtiter test, Mycoplasma gallisepticum
Source text: as §1

Mycoplasma synoviae = assay: MIC, broth-dilution microtiter test, Mycoplasma synoviae
Source text: as §1

Mycoplasma hyorhinis = assay: MIC, broth-dilution microtiter test, Mycoplasma hyorhinis
Source text: as §1

Mycoplasma hyopneumoniae = assay: MIC, broth-dilution microtiter test, Mycoplasma hyopneumoniae
Source text: as §1

[15] = Staphylococcus epidermidis, EPI1
[16] = Staphylococcus epidermidis, EPI2
[17] = Streptococcus pneumoniae Park I, agar dilution, read-out: MIC
[18] = Streptococcus equinus, read-out: MIC
[19] = Mycoplasma hyorhinis, broth-dilution microtiter, read-out: MIC
[20] = Mycoplasmoides gallisepticum, Mycoplasma gallisepticum, broth-dilution microtiter, read-out: MIC
[21] = Mycoplasmopsis synoviae, Mycoplasma synoviae, broth-dilution microtiter, read-out: MIC
[22] = Mesomycoplasma hyopneumoniae, Mycoplasma hyopneumoniae, broth-dilution microtiter, read-out: MIC

CCC1OC(=O)CC(O)C(C)C(OC2OC(C)C(OC3CC(C)(O)C(O)C(C)O3)C(N(C)C)C2O)C(CCOc2ccc(C=O)cc2)CC(C)C(=O)C=CC(C)=CC1COC1OC(C)C(O)C(OC)C1OC (stereo not drawn) [Compound 17, 20-DH-20-O-(p-Formylphenyl)tylosin]
MIC ([1]; Staphylococcus aureus, X1.1): 1 µg/mL (≈ 0.978 µM) | MIC ([2]; Staphylococcus aureus, V41): 1 µg/mL (≈ 0.978 µM) | MIC ([3]; Staphylococcus aureus, X400): 2 µg/mL (≈ 1.96 µM) | MIC ([4]; Staphylococcus aureus, S13E): 1 µg/mL (≈ 0.978 µM) | MIC [5, 15]: 1 µg/mL (≈ 0.978 µM) | MIC [6, 16]: 0.5 µg/mL (≈ 0.489 µM) | MIC ([7]; Streptococcus pyogenes, C203): 1 µg/mL (≈ 0.978 µM) | MIC [8, 17]: 16 µg/mL (≈ 15.7 µM) | MIC [9]: 128 µg/mL (≈ 125 µM) | MIC (Streptococcus Group 9960; GROUP9960, read-out: MIC): > 128 µg/mL | MIC ([10]; read-out: MIC): > 128 µg/mL | MIC ([11]; read-out: MIC): > 128 µg/mL | MIC (Staphylococcus aureus): 1.56 µg/mL (≈ 1.53 µM) | MIC (Streptococcus bovis 80; [18]): 50 µg/mL (≈ 48.9 µM) | MIC ([12]; read-out: MIC): > 50 µg/mL | MIC ([13]; read-out: MIC): > 50 µg/mL | MIC ([14]; read-out: MIC): > 50 µg/mL | MIC (Mycoplasma gallisepticum; Mycoplasmoides gallisepticum): 0.78 µg/mL (≈ 0.763 µM) | MIC (Mycoplasma synoviae; Mycoplasmopsis synoviae): 6.25 µg/mL (≈ 6.11 µM) | MIC (Mycoplasma hyorhinis; [19]): > 50 µg/mL | MIC (Mycoplasma hyopneumoniae; Mesomycoplasma hyopneumoniae): > 25 µg/mL

CCC1OC(=O)CC(O)C(C)C(OC2OC(C)C(OC3CC(C)(O)C(O)C(C)O3)C(N(C)C)C2O)C(CCSc2ccccc2)CC(C)C(=O)C=CC(C)=CC1COC1OC(C)C(O)C(OC)C1OC (stereo not drawn) [Compound 6, 20-DH-DO-20-(Phenylthio)tylosin]
MIC ([1]; Staphylococcus aureus, X1.1): 1 µg/mL (≈ 0.99 µM) | MIC ([2]; Staphylococcus aureus, V41): 1 µg/mL (≈ 0.99 µM) | MIC ([3]; Staphylococcus aureus X400, methicillin-resistant strain, agar dilution, read-out: MIC): 2 µg/mL (≈ 1.98 µM) | MIC ([4]; Staphylococcus aureus, S13E): 1 µg/mL (≈ 0.99 µM) | MIC ([5]; Staphylococcus epidermidis EPI1, agar dilution, read-out: MIC): 2 µg/mL (≈ 1.98 µM) | MIC [6, 16]: 1 µg/mL (≈ 0.99 µM) | MIC ([7]; Streptococcus pyogenes, C203): 4 µg/mL (≈ 3.96 µM) | MIC ([8]; Streptococcus pneumoniae): 64 µg/mL (≈ 63.3 µM) | MIC [9]: > 128 µg/mL | MIC (Streptococcus Group 9960; GROUP9960, read-out: MIC): > 128 µg/mL | MIC ([10]; read-out: MIC): > 128 µg/mL | MIC ([11]; read-out: MIC): > 128 µg/mL | MIC (Staphylococcus aureus): 3.12 µg/mL (≈ 3.09 µM) | MIC (Streptococcus bovis 80; [18]): > 50 µg/mL | MIC ([12]; read-out: MIC): > 50 µg/mL | MIC ([13]; read-out: MIC): > 50 µg/mL | MIC ([14]; read-out: MIC): > 50 µg/mL | MIC (Mycoplasma gallisepticum; [20]): 0.78 µg/mL (≈ 0.772 µM) | MIC (Mycoplasma synoviae; [21]): 12.5 µg/mL (≈ 12.4 µM) | MIC (Mycoplasma hyorhinis; [19]): > 50 µg/mL | MIC (Mycoplasma hyopneumoniae; [22]): > 25 µg/mL

CCC1OC(=O)CC(O)C(C)C(OC2OC(C)C(OC3CC(C)(O)C(O)C(C)O3)C(N(C)C)C2O)C(CCOc2cc(Cl)cc(Cl)c2)CC(C)C(=O)C=CC(C)=CC1COC1OC(C)C(O)C(OC)C1OC (stereo not drawn) [Compound 15, 20-DH-20-O-(3,5-Dichlorophenyl)tylosin]
MIC ([1]; Staphylococcus aureus, X1.1): 1 µg/mL (≈ 0.941 µM) | MIC ([2]; Staphylococcus aureus, V41): 2 µg/mL (≈ 1.88 µM) | MIC ([3]; Staphylococcus aureus, X400): 4 µg/mL (≈ 3.76 µM) | MIC ([4]; Staphylococcus aureus, S13E): 1 µg/mL (≈ 0.941 µM) | MIC [5, 15]: 2 µg/mL (≈ 1.88 µM) | MIC [6, 16]: 1 µg/mL (≈ 0.941 µM) | MIC ([7]; Streptococcus pyogenes, C203): 1 µg/mL (≈ 0.941 µM) | MIC [8, 17]: 16 µg/mL (≈ 15.1 µM) | MIC ([9]; Streptococcus Group D X66, agar dilution, read-out: MIC): > 128 µg/mL | MIC (Streptococcus Group 9960; GROUP9960, read-out: MIC): > 128 µg/mL | MIC ([10]; read-out: MIC): > 128 µg/mL | MIC ([11]; read-out: MIC): > 128 µg/mL | MIC (Staphylococcus aureus; broth-dilution microtiter, read-out: MIC): 1.56 µg/mL (≈ 1.47 µM) | MIC (Streptococcus bovis 80; [18]): 6.25 µg/mL (≈ 5.88 µM) | MIC ([12]; read-out: MIC): > 50 µg/mL | MIC ([13]; read-out: MIC): > 50 µg/mL | MIC ([14]; read-out: MIC): > 50 µg/mL | MIC (Mycoplasma gallisepticum; [20]): 1.56 µg/mL (≈ 1.47 µM) | MIC (Mycoplasma synoviae; [21]): 3.12 µg/mL (≈ 2.93 µM) | MIC (Mycoplasma hyorhinis; Mycoplasma): 50 µg/mL (≈ 47 µM) | MIC (Mycoplasma hyopneumoniae; [22]): > 25 µg/mL

CCC1OC(=O)CC(O)C(C)C(OC2OC(C)C(OC3CC(C)(O)C(O)C(C)O3)C(N(C)C)C2O)C(CCOc2ccccc2)CC(C)C(=O)C=CC(C)=CC1COC1OC(C)C(O)C(O)C1OC (stereo not drawn) [Compound 53, 20-DH-20-O-Phenylmacrocin]
MIC ([1]; Staphylococcus aureus X1.1, agar dilution): 2 µg/mL (≈ 2.04 µM) | MIC ([2]; Staphylococcus aureus V41, penicillin-resistant strain, agar dilution): 2 µg/mL (≈ 2.04 µM) | MIC ([3]; Staphylococcus aureus X400, methicillin-resistant strain, agar dilution): 4 µg/mL (≈ 4.08 µM) | MIC ([4]; Staphylococcus aureus S13E, agar dilution): 2 µg/mL (≈ 2.04 µM) | MIC ([5]; Staphylococcus epidermidis EPI1, agar dilution): 2 µg/mL (≈ 2.04 µM) | MIC ([6]; Staphylococcus epidermidis EPI2, agar dilution): 2 µg/mL (≈ 2.04 µM) | MIC ([7]; Streptococcus pyogenes C203, agar dilution): 4 µg/mL (≈ 4.08 µM) | MIC ([8]; Streptococcus pneumoniae Park I, agar dilution): 32 µg/mL (≈ 32.6 µM) | MIC ([9]; Streptococcus Group D X66, agar dilution): -- (Not active at 128 mcg/ml, the highest level tested) | MIC (Streptococcus Group 9960): -- (Not active at 128 mcg/ml, the highest level tested) | MIC ([10]; agar dilution): -- (Not active at 128 mcg/ml, the highest level tested) | MIC ([11]; agar dilution): -- (Not active at 128 mcg/ml, the highest level tested) | MIC (Staphylococcus aureus; broth-dilution microtiter): 0.39 µg/mL (≈ 0.398 µM) | MIC (Streptococcus bovis 80): 6.25 µg/mL (≈ 6.38 µM) | MIC [12]: 25 µg/mL (≈ 25.5 µM) | MIC [13]: 12.5 µg/mL (≈ 12.8 µM) | MIC [14]: 25 µg/mL (≈ 25.5 µM) | MIC (Mycoplasma gallisepticum; Mycoplasma gallisepticum, broth-dilution microtiter): < 0.05 µg/mL | MIC (Mycoplasma synoviae; Mycoplasma synoviae, broth-dilution microtiter): 3.12 µg/mL (≈ 3.18 µM) | MIC (Mycoplasma hyorhinis; Mycoplasma hyorhinis, broth-dilution microtiter): 50 µg/mL (≈ 51 µM) | MIC (Mycoplasma hyopneumoniae; Mycoplasma hyopneumoniae, broth-dilution microtiter): 0.78 µg/mL (≈ 0.796 µM)
